Data on 14 substances can be found in the OligoGym collection.

Values joined by “and” are separate entries in the source; they are usually repeats but may differ in a detail not shown here. Equal entries are not always repeated. HELM strings list units from the 5' end as sugar, base in round brackets, then linkage (d deoxyribose, r ribose, m 2'-O-methyl, p phosphodiester). Strings are as the collection lists them, not checked against the first reports. ss, as = sense and antisense strand; [lna] = locked nucleic acid (LNA); [s4r] = 4'-thioribose; [fl2r] = 2'-fluoro
Also: test system not given here.

For the series the following is noted: siRNA.
In the case of “RNA1{r(U)p.m(U)p.r(G)p.r(G)p.r(G)p.r(G)p.r(A)p.r(A)p.r(G)p.r(C)p.r(G)p.r(G)p.r(C)p.r(C)p.r(G)p.r(G)p.r(C)p.r(G)p.r(G)p.r(T)p.r(T)}|RNA2{r(C)p.r(C)p.r(G)p.r(C)p.r(C)p.r(G)p.r(G)p.r(C)p.r(C)p.r(G)p.r(C)p.r(U)p.r(U)p.r(C)p.r(C)p.r(C)p.m(C)p.r(A)p.r(A)p.r(T)p.r(T)}$$$RNA1{StrandType:ss}|RNA2{StrandType:as}$”, the target mRNA knockdown stood at 82%.

Substance “RNA1{m(U)p.r(U)p.m(A)p.r(A)p.m(G)p.r(G)p.m(A)p.r(G)p.m(A)p.r(A)p.m(G)p.r(C)p.m(U)p.r(G)p.m(A)p.r(C)p.m(G)p.r(G)p.m(C)p.r(T)p.r(T)}|RNA2{m(G)p.r(C)p.r(C)p.m(G)p.r(U)p.r(C)p.r(A)p.m(G)p.r(C)p.r(U)p.r(U)p.r(C)p.r(U)p.r(C)p.r(C)p.r(U)p.r(U)p.r(A)p.r(A)p.r(T)p.r(T)}$$$RNA1{StrandType:ss}|RNA2{StrandType:as}$” came in with a target mRNA knockdown of 45%.

Substance “RNA1{r(C)p.r(U)p.r(U)p.r(A)p.r(C)p.r(G)p.r(C)p.r(U)p.r(G)p.r(A)p.r(G)p.r(U)p.r(A)p.r(C)p.r(U)p.r(U)p.r(C)p.r(G)p.r(A)p.r(T)p.r(T)}|RNA2{r(T)p.r(C)p.r(G)p.r(A)p.r(A)p.r(G)p.[lna](T)p.r(A)p.r(C)p.r(U)p.r(C)p.r(A)p.r(G)p.r(C)p.r(G)p.r(U)p.r(A)p.r(A)p.r(G)p.[lna](T)p.[lna](T)}$$$RNA1{StrandType:ss}|RNA2{StrandType:as}$” displayed a target mRNA knockdown of 93%.

On to “RNA1{r(C)p.r(G)p.r(A)p.r(C)p.[fl2r](G)p.r(A)p.r(U)p.r(U)p.r(C)p.r(U)p.r(U)p.r(C)p.[fl2r](U)p.r(A)p.r(C)p.r(U)p.r(C)p.r(A)p.r(A)p.r(T)p.r(T)}|RNA2{r(U)p.[fl2r](U)p.r(G)p.r(A)p.r(G)p.[fl2r](U)p.r(A)p.r(G)p.r(A)p.r(A)p.r(G)p.r(A)p.r(A)p.r(U)p.r(C)p.r(G)p.r(U)p.r(C)p.r(G)p.r(T)p.r(T)}$$$RNA1{StrandType:ss}|RNA2{StrandType:as}$”, for which the target mRNA knockdown was found to be 62%.

“RNA1{[s4r](C)p.[s4r](G)p.r(U)p.r(A)p.r(C)p.r(G)p.r(C)p.r(G)p.r(G)p.r(A)p.r(A)p.r(U)p.r(A)p.r(C)p.r(U)p.r(U)p.r(C)p.[s4r](G)p.[s4r](A)p.r(T)p.r(T)}|RNA2{r(U)p.r(C)p.r(G)p.r(A)p.r(A)p.r(G)p.r(U)p.r(A)p.r(U)p.r(U)p.r(C)p.r(C)p.r(G)p.r(C)p.r(G)p.r(U)p.r(A)p.[s4r](C)p.[s4r](G)p.r(T)p.r(T)}$$$RNA1{StrandType:ss}|RNA2{StrandType:as}$” returned a target mRNA knockdown of 92.1%.

The substance “RNA1{m(A)p.r(U)p.m(G)p.r(G)p.m(G)p.r(A)p.m(G)p.r(A)p.m(A)p.r(G)p.m(U)p.r(A)p.m(G)p.r(U)p.m(C)p.r(C)p.m(C)p.r(C)p.r(C)p.r(T)p.r(T)}|RNA2{r(G)p.r(G)p.r(G)p.r(G)p.r(G)p.r(A)p.r(C)p.r(U)p.r(A)p.r(C)p.r(U)p.r(U)p.r(C)p.r(U)p.r(C)p.r(C)p.r(C)p.r(A)p.r(U)p.r(T)p.r(T)}$$$RNA1{StrandType:ss}|RNA2{StrandType:as}$” gave a target mRNA knockdown of 71%.

Take “RNA1{r(A)p.r(G)p.[fl2r](U)p.r(A)p.r(A)p.r(U)p.r(C)p.r(C)p.r(G)p.r(G)p.r(A)p.r(C)p.r(U)p.[fl2r](C)p.r(A)p.r(A)p.r(C)p.r(U)p.r(C)p.r(T)p.r(T)}|RNA2{r(G)p.r(A)p.r(G)p.r(U)p.[fl2r](U)p.r(G)p.r(A)p.r(G)p.r(U)p.r(C)p.r(C)p.r(G)p.r(G)p.r(A)p.r(U)p.[fl2r](U)p.r(A)p.r(C)p.r(U)p.r(T)p.r(T)}$$$RNA1{StrandType:ss}|RNA2{StrandType:as}$”: the target mRNA knockdown turned out to be 68%.

The substance “RNA1{m(G)p.r(A)p.m(C)p.r(A)p.m(A)p.r(G)p.m(G)p.r(G)p.m(A)p.r(A)p.m(G)p.r(G)p.m(U)p.r(U)p.m(A)p.r(G)p.m(C)p.r(C)p.m(U)p.r(T)p.r(T)}|RNA2{r(A)p.r(G)p.r(G)p.r(C)p.r(U)p.r(A)p.r(A)p.r(C)p.r(C)p.r(U)p.r(U)p.r(C)p.r(C)p.r(C)p.r(U)p.r(U)p.r(G)p.r(U)p.r(C)p.r(T)p.r(T)}$$$RNA1{StrandType:ss}|RNA2{StrandType:as}$” came in with a target mRNA knockdown of 34%.

Take “RNA1{r(C)p.r(U)p.r(U)p.r(A)p.r(C)p.r(G)p.r(C)p.r(U)p.r(G)p.r(A)p.r(G)p.r(U)p.r(A)p.r(C)p.r(U)p.r(U)p.r(C)p.r(G)p.r(A)p.[lna](T)p.[lna](T)}|RNA2{[lna](T)p.r(C)p.r(G)p.r(A)p.r(A)p.r(G)p.r(U)p.r(A)p.r(C)p.r(U)p.r(C)p.r(A)p.r(G)p.r(C)p.r(G)p.r(U)p.r(A)p.r(A)p.r(G)p.[lna](T)p.[lna](T)}$$$RNA1{StrandType:ss}|RNA2{StrandType:as}$”: the target mRNA knockdown stood at 27%.

With “RNA1{r(G)p.r(A)p.r(A)p.r(G)p.r(A)p.r(G)p.r(C)p.r(C)p.m(U)p.r(A)p.m(C)p.r(A)p.r(C)p.r(A)p.r(A)p.r(C)p.r(C)p.r(C)p.r(U)p.r(T)p.r(T)}|RNA2{r(A)p.r(G)p.r(G)p.r(G)p.r(U)p.r(U)p.r(G)p.m(U)p.r(G)p.m(U)p.r(A)p.r(G)p.r(G)p.r(C)p.r(U)p.r(C)p.r(U)p.r(U)p.r(C)p.r(T)p.r(T)}$$$RNA1{StrandType:ss}|RNA2{StrandType:as}$”, the target mRNA knockdown is 76%.

For the substance “RNA1{r(U)p.r(C)p.r(G)p.r(G)p.r(G)p.r(A)p.r(A)p.r(A)p.r(U)p.r(U)p.r(U)p.r(C)p.r(U)p.r(C)p.r(U)p.r(A)p.r(U)p.r(U)p.r(A)p.d(T)p.d(T)}|RNA2{r(U)p.r(A)p.r(A)p.r(U)p.r(A)p.r(G)p.r(A)p.r(G)p.r(A)p.r(A)p.r(A)p.r(U)p.r(U)p.r(U)p.r(C)p.r(C)p.r(C)p.r(G)p.r(A)p.d(T)p.d(T)}$$$RNA1{StrandType:ss}|RNA2{StrandType:as}$”, the target mRNA knockdown was 94% and 80%.

Substance “RNA1{r(C)p.r(G)p.r(U)p.r(A)p.r(C)p.r(G)p.r(C)p.r(G)p.r(G)p.r(A)p.r(A)p.r(U)p.r(A)p.r(C)p.r(U)p.r(U)p.r(C)p.r(G)p.r(A)p.r(T)p.r(T)}|RNA2{[s4r](U)p.[s4r](C)p.r(G)p.r(A)p.r(A)p.r(G)p.r(U)p.r(A)p.r(U)p.r(U)p.r(C)p.r(C)p.r(G)p.r(C)p.r(G)p.r(U)p.r(A)p.[s4r](C)p.[s4r](G)p.r(T)p.r(T)}$$$RNA1{StrandType:ss}|RNA2{StrandType:as}$” displayed a target mRNA knockdown of 88.8%.

“RNA1{r(A)p.r(A)p.r(C)p.r(U)p.r(U)p.r(C)p.r(U)p.r(G)p.r(G)p.r(G)p.r(A)p.r(G)p.r(C)p.r(C)p.r(U)p.r(C)p.m(C)p.r(A)p.r(A)p.r(T)p.r(T)}|RNA2{r(U)p.r(U)p.r(G)p.r(G)p.r(A)p.r(G)p.r(G)p.r(C)p.r(U)p.r(C)p.r(C)p.m(C)p.r(A)p.r(G)p.r(A)p.r(A)p.r(G)p.r(U)p.r(U)p.r(T)p.r(T)}$$$RNA1{StrandType:ss}|RNA2{StrandType:as}$”: the target mRNA knockdown is 73%.

In turn, “RNA1{r(G)p.[fl2r](C)p.r(A)p.r(G)p.[fl2r](C)p.r(A)p.[fl2r](C)p.r(G)p.r(A)p.[fl2r](C)p.[fl2r](U)p.[fl2r](U)p.[fl2r](C)p.[fl2r](U)p.[fl2r](U)p.[fl2r](C)p.r(A)p.r(A)p.r(G)p.r(T)p.r(T)}|RNA2{[fl2r](C)p.[fl2r](U)p.[fl2r](U)p.r(G)p.r(A)p.r(A)p.r(G)p.r(A)p.r(A)p.r(G)p.[fl2r](U)p.[fl2r](C)p.r(G)p.[fl2r](U)p.r(G)p.[fl2r](C)p.[fl2r](U)p.r(G)p.[fl2r](C)p.r(T)p.r(T)}$$$RNA1{StrandType:ss}|RNA2{StrandType:as}$” gave a target mRNA knockdown of 83%.
